From US7906522B2, “2-aminoquinazoline derivatives” (Kyowa Hakko Kirin Co., Ltd, priority 2005, dated 2011)

Target: T1, Activated human p38α (Homo sapiens, UniProt Q16539)
T1 construct: purchased Upstate Biotechnology Inc. 14-251
Assay: p38MAP kinase inhibition test
Type: biochemical
Conditions: at a concentration of 1 μmol/L; substrate myelin basic protein, ATP 20 μmol/L, [γ-32P]ATP; read-out: enzyme inhibitory activity
Procedure, shortened: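 Radiometric kinase assay with myelin basic protein (20 μg/assay) as substrate, 20 μmol/L ATP plus [γ-32P]ATP, MOPS pH 7.2 with MgCl2 18.75 mmol/L. Reaction run 15 min at 30° C., stopped with phosphoric acid; 32P-MBP captured on phosphocellulose and counted by scintillation.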

T1 sequence (Q16539 whole entry): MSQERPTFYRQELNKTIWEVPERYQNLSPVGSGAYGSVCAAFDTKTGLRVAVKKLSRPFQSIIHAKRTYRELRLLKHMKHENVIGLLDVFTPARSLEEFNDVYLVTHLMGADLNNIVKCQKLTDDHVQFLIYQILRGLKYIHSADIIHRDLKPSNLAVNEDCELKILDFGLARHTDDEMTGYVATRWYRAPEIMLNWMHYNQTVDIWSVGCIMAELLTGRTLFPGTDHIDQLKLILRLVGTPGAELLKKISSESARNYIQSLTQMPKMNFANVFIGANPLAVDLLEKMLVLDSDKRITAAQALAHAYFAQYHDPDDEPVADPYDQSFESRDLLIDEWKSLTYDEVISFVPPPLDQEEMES

Compound | inhibition at 1 µM [%]
COc1cc2nc(NC(C)C)ncc2cc1-c1cc(N)ccc1CO [Compound 224, 6-[5-Amino-2-(hydroxymethyl)phenyl]-2-isopropylamino-7-methoxyquinazoline] | ≥ 50
COc1cc2nc(NC3CCOCC3)ncc2cc1-c1ccccc1Cl [Compound 11, 6-(2-Chlorophenyl)-7-methoxy-2-(4-tetrahydropyranylamino)quinazoline] | ≥ 50
N[C@H]1CC[C@H](Nc2ncc3cc(-c4ccccc4Cl)c(O)cc3n2)CC1 [Compound 158, 2-(trans-4-Aminocyclohexylamino)-6-(2-chlorophenyl)-7-hydroxyquinazoline] | ≥ 50
COc1cc2nc(NC(C)C)ncc2cc1-c1cc(NC(=O)c2ccnc(N3CCOCC3)c2)ccc1C [Compound 231, 2-Isopropylamino-7-methoxy-6-{2-methyl-5-[(2-morpholinopyridin-4-yl)carbonylamino]phenyl}quinazoline] | ≥ 50
COc1cc2nc(NC(C)C)ncc2cc1-c1cc(NC(=O)c2ccc[nH]2)ccc1CO [Compound 228, 6-{2-Hydroxymethyl-5-[(1H-pyrrol-2-yl)carbonylamino]phenyl}-2-isopropylamino-7-methoxyquinazoline] | ≥ 50
CCCS(=O)(=O)N1CCC(Nc2ncc3cc(-c4ccccc4Cl)c(OC)cc3n2)CC1 [Compound 148, 6-(2-Chlorophenyl)-7-methoxy-2-[1-(1-propylsulfonyl)piperidin-4-ylamino]quinazoline] | ≥ 50
COc1cc2nc(NC(C)C)ncc2cc1-c1cc(N)ccc1C [Compound 229, 6-(5-Amino-2-methylphenyl)-2-isopropylamino-7-methoxyquinazoline] | ≥ 50
COc1cc2nc(NC3CCN(S(C)(=O)=O)C3)ncc2cc1-c1ccccc1Cl (stereo not drawn) [Compound 145, 6-(2-Chlorophenyl)-7-methoxy-2-[1-(methylsulfonyl)pyrrolidin-3-ylamino]quinazoline] | ≥ 50
CCOC(=O)N1CCC(Nc2ncc3cc(-c4ccccc4Cl)c(OC)cc3n2)CC1 [Compound 149, 6-(2-Chlorophenyl)-2-[1-(ethoxycarbonyl)piperidin-4-ylamino]-7-methoxyquinazoline] | ≥ 50
COc1c(-c2ccccc2Cl)cc2cnc(NC(C)C)nc2c1C(=O)N1CCCCC1 [Compound 67, 6-(2-Chlorophenyl)-2-isopropylamino-7-methoxy-8-(piperidinocarbonyl)quinazoline] | ≥ 50
COc1cc2nc(NC3CCNCC3)ncc2cc1-c1ccccc1Cl [Compound 152, 6-(2-Chlorophenyl)-7-methoxy-2-(piperidin-4-ylamino)quinazoline] | ≥ 50
COc1cc2nc(NC3CCCC3)ncc2cc1-c1ccccc1Cl [Compound 6, 6-(2-Chlorophenyl)-2-(cyclopentylamino)-7-methoxyquinazoline] | ≥ 50
COc1ccc(NC(C)=O)cc1-c1cc2cnc(NC(C)C)nc2cc1OC [Compound 234, 6-(5-Acetylamino-2-methoxyphenyl)-2-isopropylamino-7-methoxyquinazoline] | ≥ 50
COc1cc2nc(N[C@@H](C)C(C)C)ncc2cc1-c1ccccc1C [Compound 168, (S)-2-(3-methyl-2-butylamino)-7-methoxy-6-(2-methylphenyl)quinazoline] | ≥ 50
COc1cc2nc(NC3CCN(S(C)(=O)=O)CC3)ncc2cc1-c1ccccc1C=O [Compound 237, 6-(2-Formylphenyl)-7-methoxy-2-[1-(methylsulfonyl)piperidin-4-ylamino]quinazoline] | ≥ 50
COc1cc2nc(N[C@H]3CC[C@H](NS(C)(=O)=O)CC3)ncc2cc1-c1ccccc1Cl [Compound 146, 6-(2-Chlorophenyl)-7-methoxy-2-[trans-4-(methylsulfonylamino)cyclohexylamino]quinazoline] | ≥ 50
N[C@H]1CC[C@H](Nc2ncc3cc(C(=O)c4ccccc4)c(O)cc3n2)CC1 [Compound 139, 2-(trans-4-Aminocyclohexylamino)-6-benzoyl-7-hydroxyquinazoline] | ≥ 50
COc1c(-c2ccccc2Cl)cc2cnc(NC(C)C)nc2c1C(=O)N1CCOCC1 [Compound 66, 6-(2-Chlorophenyl)-2-isopropylamino-8-(morpholinocarbonyl)-7-methoxyquinazoline] | ≥ 50
CNc1ncc2cc(-c3cc(NC(C)=O)ccc3C)c(OC)cc2n1 [Compound 250, 6-(5-Acetylamino-2-methylphenyl)-7-methoxy-2-(methylamino)quinazoline] | ≥ 50
Cc1ccc(C(=O)NC2CC2)cc1-c1ccc2nc(NC(C)C)ncc2c1 [Compound 268, 6-(5-Cyclopropylcarbamoyl-2-methylphenyl)-2-(isopropylamino)quinazoline] | ≥ 50
COc1cc2nc(NC3CCN(S(=O)(=O)C(C)C)CC3)ncc2cc1-c1ccccc1Cl [Compound 143, 6-(2-Chlorophenyl)-2-[1-(isopropylsulfonyl)piperidin-4-ylamino]-7-methoxyquinazoline] | ≥ 50
COc1cc2nc(NC(C)C)ncc2cc1-c1ccccc1C(=O)N1CCOCC1 [Compound 188, 2-Isopropylamino-7-methoxy-6-[2-(morpholinocarbonyl)phenyl]quinazoline] | ≥ 50
CC(C)Nc1ncc2cc(-c3ccccc3Cl)c(OCC(C)(C)O)c(C(C)(C)O)c2n1 [Compound 81, 6-(2-Chlorophenyl)-8-(1-hydroxy-1-methylethyl)-7-(2-hydroxy-2-methylpropyloxy)-2-(isopropylamino)quinazoline] | ≥ 50

More lines, now with the values ahead:

inhibition at 1 µM [%] | Compound
≥ 50 | CC(C)Nc1ncc2cc(-c3ccccc3Cl)c(OCC(=O)N3CCOCC3)cc2n1 [Compound 39, 6-(2-Chlorophenyl)-2-isopropylamino-7-[(morpholinocarbonyl)methyloxy]quinazoline]
≥ 50 | COc1c(-c2ccccc2Cl)cc2cnc(NC(C)C)nc2c1C(=O)N(C)OC [Compound 71, 6-(2-Chlorophenyl)-2-isopropylamino-7-methoxy-8-(N-methoxy-N-methylaminocarbonyl)quinazoline]
≥ 50 | COc1cc2nc(NC(C)C)ncc2cc1-c1cccc(NC(=O)c2cccc(N(C)C)c2)c1 [Compound 54, 2-Isopropylamino-7-methoxy-6-{3-[(3-dimethylaminophenyl)carbonylamino]phenyl}quinazoline]
≥ 50 | Cc1cccc(C(=O)c2cc3cnc(NC(C)C)nc3cc2O)c1 [Compound 118, 7-Hydroxy-2-isopropylamino-6-(3-methylbenzoyl)quinazoline]
≥ 50 | COc1cc2nc(NC(C)C)ncc2cc1-c1ccccc1C=NO [Compound 58]
≥ 50 | CC(C)Nc1ncc2cc(-c3cccc(C(=O)NC4CC4)c3)ccc2n1 [Compound 270, 6-[3-(Cyclopropylcarbamoyl)phenyl]-2-(isopropylamino)quinazoline]
≥ 50 | CC(C)Nc1ncc2cc(-c3ccccc3Cl)c(OCC(=O)O)cc2n1 [Compound 33, 7-(Carboxymethyloxy)-6-(2-chlorophenyl)-2-isopropylaminoquinazoline]
≥ 50 | COc1c(-c2ccccc2Cl)cc2cnc(NC(C)C)nc2c1-c1ccccn1 [Compound 86, 6-(2-Chlorophenyl)-2-isopropylamino-7-methoxy-8-(2-pyridyl)quinazoline]
≥ 50 | Cc1ccc(NC(=O)c2ccc[nH]2)cc1-c1ccc2nc(NC(C)C)ncc2c1 [Compound 253, 2-Isopropylamino-6-{2-methyl-5-[(1H-pyrrol-2-yl)carbonylamino]phenyl}quinazoline]
≥ 50 | CC(C)Nc1ncc2cc(-c3ccccc3Cl)c(-c3cccc(C(=O)O)c3)cc2n1 [Compound 42, 7-(3-Carboxyphenyl)-6-(2-chlorophenyl)-2-isopropylaminoquinazoline]
≥ 50 | CC(C)Nc1ncc2cc(-c3cccc(NC(=O)C4CC4)c3)c(O)cc2n1 [Compound 296, 6-[3-(Cyclopropylcarbonylamino)phenyl]-7-hydroxy-2-(isopropylamino)quinazoline]
≥ 50 | O=C(c1ccccc1)c1cc2cnc(Nc3c(Cl)cccc3Cl)nc2cc1O [Compound 141, 6-Benzoyl-2-(2,6-dichloroanilino)-7-hydroxyquinazoline]
≥ 50 | CC(C)Nc1ncc2cc(-c3cccc(NC(=O)C(C)(C)C)c3)c(O)cc2n1 [Compound 298, 6-[3-(tert-Butylcarbonylamino)phenyl]-7-hydroxy-2-(isopropylamino)quinazoline]
≥ 50 | CC(C)Nc1ncc2cc(-c3ccccc3Cl)c(OCCO)cc2n1 [Compound 23, 6-(2-Chlorophenyl)-7-(2-hydroxyethyloxy)-2-isopropylaminoquinazoline]
≥ 50 | COCOc1c(-c2ccccc2Cl)cc2cnc(NC(C)C)nc2c1-c1ccccc1F [Compound 99, 6-(2-Chlorophenyl)-8-(2-fluorophenyl)-2-isopropylamino-7-(methoxymethyloxy)quinazoline]
≥ 50 | CC(C)Nc1ncc2cc(-c3ccccc3Cl)c(O)c(-c3cccc(CC(=O)O)c3)c2n1 [Compound 96, 8-[3-(Carboxymethyl)phenyl]-6-(2-chlorophenyl)-7-hydroxy-2-(isopropylamino)quinazoline]
≥ 50 | CC(C)Nc1ncc2cc(-c3ccccc3Cl)c(OC(=O)c3ccccc3)cc2n1 [Compound 20, 7-Benzoyloxy-6-(2-chlorophenyl)-2-isopropylaminoquinazoline]
≥ 50 | COc1cc2nc(NC(C)C)ncc2cc1-c1cccc(N)c1 [Compound 50, 6-(3-Aminophenyl)-2-isopropylamino-7-methoxyquinazoline]
≥ 50 | COc1cc2nc(NC(C)C)ncc2cc1-c1cccc(NC(=O)c2ccccc2C(F)(F)F)c1 [Compound 217, 2-Isopropylamino-7-methoxy-6-{3-[(2-trifluoromethylphenyl)carbonylamino]phenyl}quinazoline]
